*1 amine or outer side, *2 acyl side, *3 side chain or, on linkers, in order; H or OH if unused. Where a SMILES comes first, the peptide text is derived from it. Bridges are numbered along the chain shown (N, C = ends). [ ]: non-standard residue; d: D form. The star is where a group is joined. hPhe(3,5-F2-4-CF3) = N[C@@H](CCc1cc(F)c(C(F)(F)F)c(F)c1)C(=O)O; hPhe(3-Cl-4-CF3) = N[C@@H](CCc1ccc(C(F)(F)F)c(Cl)c1)C(=O)O; NPrPhe(4-CF3) = CCCN[C@@H](Cc1ccc(C(F)(F)F)cc1)C(=O)O; NMeGly(cPent) = CN[C@H](C(=O)O)C1CCCC1; NMeNva(3-Et) = CCC(CC)[C@H](NC)C(=O)O; X13 = CCC[C@](C)(N[*:1])C(=O)[*:2]; NMeD = CN[C@@H](CC(=O)O)C(=O)O; NMeL = CN[C@@H](CC(C)C)C(=O)O; Morpholide = C1CN(*)CCO1; Ac4c = NC1(C(=O)O)CCC1; Sar = CNCC(=O)O
Columns and labels:
[1] = target: GDP-bound HRAS wild-type protein (Homo sapiens, UniProt P01112); assay: Binding to HRAS by surface plasmon resonance (SPR), Single Cycle Kinetics
Sequence of GDP-bound HRAS wild-type protein (P01112 whole entry): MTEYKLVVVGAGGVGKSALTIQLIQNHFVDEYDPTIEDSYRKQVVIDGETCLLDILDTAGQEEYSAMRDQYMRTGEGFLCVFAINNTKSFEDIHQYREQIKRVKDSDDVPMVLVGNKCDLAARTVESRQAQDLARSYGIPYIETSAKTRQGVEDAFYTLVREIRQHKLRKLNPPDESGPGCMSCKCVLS

[2] = target: GDP-bound NRAS wild-type protein (Homo sapiens, UniProt P01111); assay: Binding to NRAS by surface plasmon resonance (SPR), Single Cycle Kinetics
Sequence of GDP-bound NRAS wild-type protein (P01111 whole entry): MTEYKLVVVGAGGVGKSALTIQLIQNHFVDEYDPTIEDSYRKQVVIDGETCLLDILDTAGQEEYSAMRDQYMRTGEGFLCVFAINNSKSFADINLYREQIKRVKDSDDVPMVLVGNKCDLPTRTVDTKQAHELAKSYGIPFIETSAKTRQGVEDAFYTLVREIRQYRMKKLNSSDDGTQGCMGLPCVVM

[3] = KD ratio, GDP-bound HRAS wild-type vs GDP-bound KRAS wild-type, SPR
[4] = KD ratio, GDP-bound NRAS wild-type vs GDP-bound KRAS wild-type, SPR

| SMILES | HRAS/KRAS (ratio of KD value with respect to GDP-bound HRAS wild-type protein to KD value with respect to KRAS) ([1]; class symbols) | NRAS/KRAS (ratio of KD value with respect to GDP-bound NRAS wild-type protein to KD value with respect to KRAS) ([2]; class symbols) | HRAS/KRAS (ratio of KD value with respect to GDP-bound HRAS wild-type protein to KD value with respect to KRAS) ([1]; SPR) | NRAS/KRAS (ratio of KD value with respect to GDP-bound NRAS wild-type protein to KD value with respect to KRAS) ([2]; SPR) | also measured |
| --- | --- | --- | --- | --- | --- |
| CCC[C@H]1C(=O)N[C@@H]([C@@H](C)CC)C(=O)N(C)CC(=O)N(C)[C@H]2C/C=C\CCN(C2=O)[C@@H](Cc2ccc(C(F)(F)F)cc2)C(=O)N(C)CC(=O)N[C@@H](CCc2cc(Cl)c3sccc3c2)C(=O)N2C[C@H](OCC)C[C@H]2C(=O)NC2(CC(C)(C)C2)C(=O)N(C)[C@@H](C(CC)CC)C(=O)N(C)[C@H](C(=O)N(C)C)CC(=O)N1C [PP2888] | A (a compound having 10 or more and less than 20 is denoted as A) | AA (a compound having 20 or more is denoted as AA) |  |  |  |
| CC[C@H](C)[C@@H]1NC(=O)[C@H](COC)N(C)C(=O)C[C@@H](C(=O)N(C)C)N(C)C(=O)[C@H](C2CCCC2)N(C)C(=O)C2(CC(C)(C)C2)NC(=O)[C@@H]2C[C@@H](OC3CCCC3)CN2C(=O)[C@H](CCc2cc(F)c(C(F)(F)F)c(F)c2)NC(=O)CN(C)C(=O)[C@H](CC2CCCCC2)N2CC/C=C\C[C@@H](C2=O)N(C)C(=O)CN(C2CC2)C1=O [PP2630] | B (a compound having 3 or more and less than 10 is denoted as B) | A (a compound having 10 or more and less than 20 is denoted as A) |  |  |  |
| CCOC[C@H]1C(=O)N[C@@H]([C@@H](C)CC)C(=O)N(C2CC2)CC(=O)N(C)[C@H]2C/C=C\CCN(C2=O)[C@@H](Cc2ccc(C)cc2)C(=O)N(C)CC(=O)N[C@@H](CCc2ccc(Cl)c(Cl)c2)C(=O)N2C[C@H](OCC)C[C@H]2C(=O)NC2(CC(C)(C)C2)C(=O)N(C)[C@@H](CC(C)(C)C)C(=O)N(C)[C@H](C(=O)N(C)C)CC(=O)N1C [PP2728] | A (a compound having 10 or more and less than 20 is denoted as A) | AA (a compound having 20 or more is denoted as AA) |  |  |  |
| CCCN1C(=O)CN(C)C(=O)CN(C)C(=O)[C@H]([C@@H](C)CC)NC(=O)[C@H](CC(C)C)N(C)C(=O)C[C@@H](C(=O)N2CCOCC2)N(C)C(=O)[C@H](C2CCCC2)N(C)C(=O)[C@](C)(CCC)NC(=O)[C@@H]2CCCN2C(=O)[C@H](CCc2cc(F)c(C(F)(F)F)c(F)c2)NC(=O)CN(C)C(=O)[C@@H]1Cc1ccc(C(F)(F)F)cc1 [PP0758] ([NMeL]I[Sar][Sar][NPrPhe(4-CF3)][Sar][hPhe(3,5-F2-4-CF3)]P[X13][NMeGly(cPent)][NMeD]-Morpholide; lactam N-11) |  |  | C (A compound having a KD ratio of 0.1 or more and less than 3 is denoted as C) | B (a compound having 3 or more and less than 10 is denoted as B) |  |
| CCO[C@@H]1C[C@H]2C(=O)NC3(CCC3)C(=O)N(C)[C@@H](C(CC)CC)C(=O)N(C)[C@H](C(=O)N3CCOCC3)CC(=O)N(C)[C@@H](CC(C)C)C(=O)N[C@@H]([C@@H](C)CC)C(=O)N(C)CC(=O)N(C)[C@H]3CCCCN(C3=O)[C@@H](Cc3ccc(C(F)(F)F)cc3)C(=O)N(C)CC(=O)N[C@@H](CCc3cc(F)c(C(F)(F)F)c(F)c3)C(=O)N2C1 [PP0811] |  |  |  |  | HRAS/KRAS (ratio of KD value with respect to HRAS to KD value with respect to KRAS) [1, 3]: B (a compound having 3 or more and less than 10 is denoted as B); NRAS/KRAS (ratio of KD value with respect to NRAS to KD value with respect to KRAS) [2, 4]: B (a compound having 3 or more and less than 10 is denoted as B) |
| CCCN1C(=O)CN(C)C(=O)CN(C)C(=O)[C@H]([C@@H](C)CC)NC(=O)[C@H](CC(C)C)N(C)C(=O)C[C@@H](C(=O)N(C)C)N(C)C(=O)[C@H](C(CC)CC)N(C)C(=O)C2(CCC2)NC(=O)[C@@H]2CCCN2C(=O)[C@H](CCc2ccc(C(F)(F)F)c(Cl)c2)NC(=O)CN(C)C(=O)[C@@H]1Cc1ccc(C(F)(F)F)cc1 [PP1960] ([NMeL]I[Sar][Sar][NPrPhe(4-CF3)][Sar][hPhe(3-Cl-4-CF3)]P[Ac4c][NMeNva(3-Et)][NMeD]-NMe2; lactam N-11) |  |  |  |  | HRAS/KRAS (ratio of KD value for HRAS to KD value for KRAS) [1, 3]: C (A compound having a KD ratio of 0.1 or more and less than 3 is denoted as C); NRAS/KRAS (ratio of KD value for NRAS to KD value for KRAS) [2, 4]: B (a compound having 3 or more and less than 10 is denoted as B) |
| CCO[C@@H]1C[C@H]2C(=O)NC3(CC=CC3)C(=O)N(C)[C@@H](C3CCCC3)C(=O)N(C)[C@H](C(=O)N3CCOCC3)CC(=O)N(C)[C@@H](CC(C)C)C(=O)N[C@@H]([C@@H](C)CC)C(=O)N(C)CC(=O)N(C)[C@H]3CCCCCN(C3=O)[C@@H](Cc3ccc(C(F)(F)F)cc3)C(=O)N(C)CC(=O)N[C@@H](CCc3cc(F)c(C(F)(F)F)c(F)c3)C(=O)N2C1 [PP0727] |  |  | B (a compound having 3 or more and less than 10 is denoted as B) | B (a compound having 3 or more and less than 10 is denoted as B) |  |
| CCC[C@H]1C(=O)N[C@@H]([C@@H](C)CC)C(=O)N(C2CC2)CC(=O)N(C)[C@H]2C/C=C\CCN(C2=O)[C@@H](Cc2ccc(C)cc2)C(=O)N(C)CC(=O)N[C@@H](CCc2ccc(C(F)(F)F)c(OC)c2)C(=O)N2C[C@H](OCC)C[C@H]2C(=O)NC2(CC(C)(C)C2)C(=O)N(C)[C@@H](CC2CC2)C(=O)N(C)[C@H](C(=O)N(C)C)CC(=O)N1C [PP2803] | A (a compound having 10 or more and less than 20 is denoted as A) | A (a compound having 10 or more and less than 20 is denoted as A) |  |  |  |
| CC[C@H](C)[C@@H]1NC(=O)[C@H](CC(C)C)N(C)C(=O)C[C@@H](C(=O)N2CCOCC2)N(C)C(=O)[C@H](C2CCCC2)N(C)C(=O)C2(CCCC2)NC(=O)[C@@H]2CCCN2C(=O)[C@H](CCc2ccc(C(F)(F)F)c(Cl)c2)NC(=O)CN(C)C(=O)[C@H](Cc2ccc(OC(F)(F)F)cc2)N2CCCCC[C@@H](C2=O)N(C)C(=O)CN(C)C1=O [PP0615] |  |  | B (a compound having 3 or more and less than 10 is denoted as B) | B (a compound having 3 or more and less than 10 is denoted as B) |  |
| C#CCN1CC(=O)N(C)[C@H]2C/C=C\CCN(C2=O)[C@@H](Cc2ccc(C)cc2)C(=O)N(C)CC(=O)N[C@@H](CCc2cc(F)c(C(F)(F)F)c(F)c2)C(=O)N2C[C@H](OCC)C[C@H]2C(=O)NC2(CCC2)C(=O)N(C)[C@@H](C2CCCC2)C(=O)N(C)[C@H](C(=O)N(C)C)CC(=O)N(C)[C@@H](CCC)C(=O)N[C@@H](CC(C)C)C1=O [PP2536] | B (a compound having 3 or more and less than 10 is denoted as B) | A (a compound having 10 or more and less than 20 is denoted as A) |  |  |  |
| CCO[C@@H]1C[C@H]2C(=O)NC3(CCC3)C(=O)N(C)[C@@H](C3CCCC3)C(=O)N(C)[C@H](C(=O)N3CCOCC3)CC(=O)N(C)[C@@H](CC3CCC3)C(=O)N[C@@H]([C@@H](C)CC)C(=O)N(C)CC(=O)N(C)[C@H]3CCCCN(C3=O)[C@@H](Cc3ccc(C(F)(F)F)cc3)C(=O)N(C)CC(=O)N[C@@H](CCc3cc(F)c(C(F)(F)F)c(F)c3)C(=O)N2C1 [PP0713] |  |  | B (a compound having 3 or more and less than 10 is denoted as B) | C (A compound having a KD ratio of 0.1 or more and less than 3 is denoted as C) |  |

— patent publication US20250230193A1, “CYCLIC COMPOUND HAVING SELECTIVE KRAS INHIBITORY EFFECT ON HRAS AND NRAS” (CHUGAI SEIYAKU KABUSHIKI KAISHA, priority 2022, published 2025)
